Columns and labels:
[1] = tested on: human suffering from cardiovascular disease (hypertension); experiment: Resting blood pressure in a human suffering from cardiovascular disease taking NEM orally, case report; format: in vivo; settings: first subject; atenolol 100 mg/day, before NEM
Procedure: (§1) The following examples are illustrative of the efficacy of an orally administered eggshell membrane product (trade name NEM®) in treating a human suffering from cardiovascular disease. […] The subject was treating their hypertension with 100 mg/day of atenolol. […] The subject had also had four cardiac stents placed to treat atherosclerotic stenosis (narrowing) of various cardiac blood vessels. The subject consumed one 500 mg capsule per day of NEM® as prepared in Example 5 for about 12 months before noticing an effect on lipid panel results. The subject continued the NEM® regimen for an additional approximately 12 months (about 2 years total). Follow-up lipid panel results were: TC=138 mg/dL, LDL=80 mg/dL, HDL=41 mg/dL, and TG=84 mg/dL. […] The subject also found it necessary to reduce the atenolol dose from 100 mg/day to 25 mg/day.

[2] = tested on: human suffering from cardiovascular disease (hyperlipidemia, hypertriglyceridemia); experiment: Lipid panel in humans suffering from cardiovascular disease taking NEM orally, case reports; format: in vivo; settings: second subject; treated with 10 mg/day atorvastatin, before NEM
Procedure: as §1
A second human with a recent history of cardiovascular disease (hyperlipidemia & hypertriglyceridemia only) was being treated with 10 mg/day of atorvastatin. Treated lipid panel results for this subject were: TC=207 mg/dL, LDL=114 mg/dL, HDL=47 mg/dL, and TG=247 mg/dL. […] The subject consumed one 500 mg capsule per day of NEM® as prepared in Example 5 for about 2 years. Follow-up lipid panel results were: TC=150 mg/dL, LDL=81 mg/dL, HDL=46 mg/dL, and TG=113 mg/dL.

Row | SMILES | resting diastolic blood pressure [1] [mm Hg] | resting systolic blood pressure [1] [mm Hg] | HDL [2] [mg/dL] | LDL [2] [mg/dL] | TG [2] [mg/dL] | Total cholesterol (TC) [2] [mg/dL]
1 | CC(C)NCC(O)COc1ccc(CC(N)=O)cc1 (stereo not drawn) [atenolol] | 84 | 146 |  |  |  | 
2 | CC(C)c1c(C(=O)Nc2ccccc2)c(-c2ccccc2)c(-c2ccc(F)cc2)n1CC[C@@H](O)C[C@@H](O)CC(=O)O [atorvastatin] |  |  | 47 | 114 | 247 | 207
